Assay results from US20090221530A1, “Relaxase Modulators and Methods of Using Same” (priority 2005, published 2009).
≈ marks a conversion by molar mass, not a printed value. Where two headings read alike, the source gives them in different places.

What was measured:
[1] = test system: F+ donor cells; experiment: microbe, parasite or virus in culture; format: cell-based, E. coli; conditions: for EC50 / 100 minute EC50: vs. F+ donor cells; for EC50: read-out: 100 minute EC50; for Selectivities by EC50, Transconj.: listed as vs. F+ donor cells relative to transconjugants
Text: (§1) A 96-well fluorescence-based assay using oxygen biosensor plates (Becton Dickinson, Franklin Lakes, N.J., U.S.A.) was employed to monitor bacterial cell survival. FIG. 7 schematically illustrates the assay mechanism of action. […] In the absence of viable bacteria, however, no fluorescence emission is detected because the fluorophore is quenched by free oxygen. The assay can further be utilized to measure conjugative DNA transfer.
(§2) Relaxase-dependent cell survival was examined by placing cultures of F+/TraI+ E. coli cells (with antibiotic resistance, e.g., Ab^r1, on a non-conjugative plasmid) within wells and exposing them to putative inhibitory compounds. […] Negative controls for this assay can be F− (Ab^r2) cells and F+ cells (Ab^r1) containing either no F plasmid relaxase (TraI) gene, or a TraI harboring catalytic tyrosine to phenylalanine mutations; in both cases, these control cells should be resistant to relaxase-dependent cell toxicity. […] Fluorescence can be measured using a PHERASTAR™ fluorescence plate reader (BMG LABTECH, Offenburg, Germany) over 8 hours time.

[2] = test system: F− recipient cells; experiment: microbe, parasite or virus in culture; format: cell-based, E. coli; conditions: for EC50 / 100 minute EC50: vs. F− recipient cells; for EC50: read-out: 100 minute EC50; for Selectivities by EC50, Donors: listed as vs. F− recipient cells relative to donors; for Selectivities by EC50, Transconj.: listed as vs. F− recipient cells relative to transconjugants
Text: as §1, §2

[3] = test system: transconjugants; experiment: microbe, parasite or virus in culture; format: cell-based, E. coli; conditions: for Selectivities by EC50, Donors: listed as vs. transconjugants relative to donors
Text: as §1, §2

[4] = test system: F+ or F− cells; experiment: 24 hr. MIC bounds (turbid/clear wells); format: cell-based, E. coli; conditions: 8x serial dilutions, bounds identical for F+ or F− cells; for MIC: Escherichia coli
[5] = target: T1, F plasmid TraI N300 (Escherichia coli, UniProt P14565); experiment: Fluorescence kinetic assay of oriT DNA cleavage and crossover by TraI N300; format: biochemical, E. coli; conditions: data not shown
T1 construct: An amino-terminal 300 residue F plasmid TraI construct; made in house; host or cells: E. coli BL21 (DE3)/pLysS or HMS174 (DE3)/pLysS, vector pTYB2
Description: Reaction Buffer: 6.42 mM MgCl2, 20.5% glycerol, 153.9 mM NaCl, and 51.3 mM Tris-HCl pH 7.5. Streptavidin Wash Buffer (Tris buffered saline, TBS/Tween): and 150 mM NaCl, 25 mM Tris-HCl pH 7.5, and 0.05% Tween-20. Stopping Buffer: 1.2% sodium-dodecyl sulfate (SDS), and 300 mM EDTA pH 10. TE Buffer: 1 mM EDTA, and 10 mM Tris-HCl pH 7.4. Fluorescence Buffer: 80% glycerol, 200 mM Tris-HCl pH 8.0. Short-term N300 stock (for storage at −20° C.): 50% Reaction Buffer, 49.8% glycerol, 0.2% long-term protein solution (84.6 nM final N300 concentration). All 5× stocks except Probe stocks were diluted in Reaction Buffer. 5× Enzyme Stock: 8.4 mL short-term N300 stock diluted to 2.02 nM N300. 5× Inhibitor Stocks: imidodiphosphate (pNp) at 0-50 nM in Reaction Buffer. 5× Substrate Stocks: oligonucleotides b29 and PCb31eco diluted to […] each, by 3-fold serial dilutions. 5× Probe Stocks: […] (1.2-fold molar excess) oligonucleotide downF in TE Buffer. All reactions and procedures involving downF were assembled or performed in darkened conditions. Solutions and microtiter plates containing downF were kept in foil-lined containers at all times to prevent photobleaching.
Two oriT derived oligonucleotides, b29 and PCb31eco, were designed for binding and cleavage by TraI based on past studies (see Oligonucleotides section herein; FIG. 4A). The overall method is modified from those described previously for the study of TraI and R388TrwC (Byrd et al., 2002; Grandoso et al., 2000; Matson and Morton, 1991). Reactions were assembled from 16 μL of 5× Substrate Stock, 16 μL of 5× Inhibitor Stock, and 32 μL of Reaction Buffer. 80 μL reactions were initiated with 16 μL of 5× Enzyme Stock and raised to 37° C. 10 μL samples were removed at eight time points (optimized to define timecourses) and stopped in 10 μL of Stopping Buffer at room temperature. Stopped reactions were placed on a 100° C. heat block for one minute, spiked with 2 μL of 5× Probe Stock while still hot, and incubated at 37° C. for 10 minutes (see Kinetic Assay Formulations for probe handling).
Samples were diluted to […] with Streptavidin Wash Buffer and transferred to Biobind Assembly streptavidin-coated microtiter plates (Thermo Electron Corporation, Waltham, Mass., U.S.A.) and incubated at 37° C. for 45 minutes. Plates were washed with at least 5-fold excess Streptavidin Wash Buffer (in an inverted position to prevent excess biotinylated species from transferring between wells). Wells were filled with 65 μL of Fluorescence Buffer for optimum 6-FAM™ fluorescence. Plates were read in a FLUOSTAR OPTIMA™ (BMG Labtech, Offenburg, Germany) with a 490 nm excitation and 520 nm emission filters (10 nm bandpass) with the gain optimized for maximum signal. The timecourses thus collected were designated Cleavage Courses. Plates were removed and irradiated with 306 nm ultraviolet radiation for 10 minutes to cleave the PC biotin linker. They were then washed inverted with at least 5-fold excess Streptavidin Wash Buffer, filled with 65 μL of Fluorescence Buffer, and again read as above. These timecourses were designated Cleavage+Crossover Courses (FIG. 4A).
All timecourses were fitted by nonlinear regression with un-weighted least-squares methods using SIGMAPLOT™ 8.0 (SYSTAT Software, Inc., Point Richmond, Calif., U.S.A.) (also used for graph construction). Timecourses with blanked signals in arbitrary fluorescence units were scaled by curve mean in groups of at least four replicates, culled for outliers, and averaged by time point. On average, one replicate time point was culled from each group of four used. The averaged curves were fitted to a simple, three-parameter exponential decay equation (Equation 1), time versus signal, and converted into units of concentration.
where t is time in seconds, y0+a is the initial signal, b is a constant that determines the shape of the curve. […]

[6] = Escherichia coli, 100 min, first EC50 block, mass concentration
[7] = Escherichia coli, 100 min, second block, mass concentration
[8] = Escherichia coli, 100 min, second block
[9] = Escherichia coli, 100 min, first EC50 block
[10] = Escherichia coli, 100 min, read-out: 100 minute EC50, vs. transconjugants, first EC50 block, mass concentration
[11] = Escherichia coli, 100 min, read-out: 100 minute EC50, vs. transconjugants, second block
[12] = Escherichia coli, 100 min, read-out: 100 minute EC50, vs. transconjugants, second block, mass concentration
[13] = clear wells after 24 hr. incubation, read-out: 24 hr. MIC bounds, upper
[14] = turbid wells after 24 hr. incubation, read-out: 24 hr. MIC bounds, lower
[15] = first EC50 block, mass concentration
[16] = second block, mass concentration
[17] = vs. transconjugants, first EC50 block, mass concentration
[18] = vs. transconjugants, first EC50 block, read-out: 100 minute EC50
[19] = vs. transconjugants, second block, mass concentration
[20] = vs. transconjugants, second block, read-out: 100 minute EC50
[21] = clear wells after 24 hr. incubation
[22] = turbid wells after 24 hr. incubation

T1 sequence (P14565 1-306): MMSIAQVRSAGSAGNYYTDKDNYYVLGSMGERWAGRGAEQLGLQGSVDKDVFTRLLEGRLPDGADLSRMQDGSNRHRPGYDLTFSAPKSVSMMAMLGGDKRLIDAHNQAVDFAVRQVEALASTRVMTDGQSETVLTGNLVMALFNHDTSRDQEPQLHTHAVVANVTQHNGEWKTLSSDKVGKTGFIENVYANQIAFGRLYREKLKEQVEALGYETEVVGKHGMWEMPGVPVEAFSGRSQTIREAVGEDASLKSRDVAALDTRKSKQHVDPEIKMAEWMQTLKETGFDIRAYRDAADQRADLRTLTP

Compound	Selectivities by EC50, Transconj. ([1]; first EC50 block)	Selectivities by EC50, Transconj. ([1]; second block)	Selectivities by EC50, Donors ([2]; first EC50 block)	Selectivities by EC50, Transconj. ([2]; first EC50 block)	Selectivities by EC50, Donors ([3]; first EC50 block)	Selectivities by EC50, Donors ([3]; second block)	100 minute EC50 [1, 15]	EC50 ([1]; first EC50 block)	100 minute EC50 [1, 16]	EC50 ([1]; second block)	100 minute EC50 [2, 15]	EC50 ([2]; first EC50 block)	100 minute EC50 [2, 16]	EC50 ([2]; second block)	100 minute EC50 [3, 17]	EC50 [3, 18]	100 minute EC50 [3, 19]	EC50 [3, 20]	24 hr. MIC bounds, upper [4, 21]	24 hr. MIC bounds, lower [4, 22]	also measured
O=P(O)(O)C(Cl)(Cl)P(=O)(O)O [Clodronate, reference compound]	1.1E−01	6.1E+00	3.6E+02	3.9E+01	9.2E+00	1.6E−01															EC50 [1, 6]: 1 µg/mL; EC50 [1, 7]: 7000 µg/mL; EC50 [1, 8]: 30000 µM; EC50 [2, 6]: 365 µg/mL; EC50 [2, 9]: 1000 µM; EC50 [2, 7]: > 24000 µg/mL; EC50 [2, 8]: > 100000 µM; EC50 ([3]; Escherichia coli, 100 min, read-out: 100 minute EC50, vs. transconjugants, first EC50 block): 38 µM; EC50 [3, 10]: 9 µg/mL; EC50 [3, 11]: 5000 µM; EC50 [3, 12]: 1000 µg/mL; MIC [4, 13]: 100 mM (≈ 24500 µg/mL); MIC [4, 14]: 12.5 mM (≈ 3060 µg/mL)
Methylenediphosphonate	8.8E+01	1.8E+01	7.8E+01	6.9E+03	1.1E−02	5.5E−02	1 µg/mL	8 µM	4000 µg/mL	21000 µM	117 µg/mL	667 ± 0.1 µM	7000 µg/mL	41000 µM	0.017 µg/mL	0.096 ± 0.0123 µM	205 µg/mL	1000 µM	12.5 mM	1.56 mM	Selectivities by EC50, Donors ([2]; second block): 1.9E+00; Selectivities by EC50, Transconj. ([2]; second block): 3.5E+01
O=P(O)(O)CNCP(=O)(O)O [Iminobis(methylphosphonate)]	8.4E−03		4.8E+05	4.0E+03	1.2E+02		0.002 µg/mL	0.01 µM	>2000 µg/mL	> 10000 µM	1000 µg/mL	5000 ± 3300 µM	>2000 µg/mL	> 10000 µM	0.253 µg/mL	1 µM	2000 µg/mL	8000 ± 500 µM	10 mM	1.25 mM	
COP(=O)(OC)c1ccccc1P(=O)(OC)OC [1,2-Bis(dimethoxyphosphoryl)benzene, 1,2-bis(dimethoxyphosphoryl)benzene]	4.8E−03		3.3E+05	1.6E+03	2.1E+02		0.02 µg/mL	0.068 µM	>29000 µg/mL	> 100000 µM	7000 µg/mL	22000 µM	>29000 µg/mL	> 100000 µM	4 µg/mL	14 ± 0.3 µM	>29000 µg/mL	> 100000 µM	100 mM	12.5 mM	
O=P(O)(O)OP(=O)(O)O [Pyrophosphate, reference compound]																					effect on enzyme activity [5]: no effect
CC(O)(P(=O)(O)O)P(=O)(O)O [Etidronate, reference compound]	1.4E+00	2.0E+01	4.3E+04	5.9E+04	7.3E−01	5.1E−02															EC50 [1, 6]: 0.002 µg/mL; EC50 [1, 9]: 0.008 ± 0.0002 µM; EC50 [1, 7]: 4000 µg/mL; EC50 [1, 8]: 20000 µM; EC50 [2, 6]: 67 µg/mL; EC50 [2, 9]: 327 µM; EC50 [2, 7]: 9000 µg/mL; EC50 [2, 8]: 42000 µM; Selectivities by EC50, Donors ([2]; second block): 2.1E+00; Selectivities by EC50, Transconj. ([2]; second block): 4.1E+01; EC50 [3, 10]: 0.001 µg/mL; EC50 [3, 11]: 1000 µM; EC50 [3, 12]: 210 µg/mL; MIC [4, 13]: 12.5 mM (≈ 2580 µg/mL); MIC [4, 14]: 1.56 mM (≈ 321 µg/mL)
